viability, IC50 and Activity data for 13 compounds are collected here from ChEMBL document CHEMBL4406808, “Synthesis and assessment of phenylacrylamide derivatives as potential anti-oxidant and anti-inflammatory agents” (Eur J Med Chem, 2019).

The test system of test [1] is HBZY-1. In words: Cytoprotection activity against H2O2-induced cell death in rat HBZY-1 cells assessed as cell viability at 6 uM preincubated with compound for 2 hrs followed by H2O2 addition and measured after 24 hrs by MTT assay (reference value: 62.1%). The conditions noted are these: read-out: Activity. The format is functional. (In general: Tetrazolium dyes change colour on reduction, which living cells bring about.)

For test [2], the system named is HBZY-1. Put plainly: Cytotoxicity against rat HBZY-1 cells assessed as reduction in cell viability after 2 hrs by MTT assay. The format is cell-based. The following applies: HBZY-1, 2 h.
Test [3] concerns HBZY-1. Put plainly: Cytoprotection activity against H2O2-induced cell death in rat HBZY-1 cells assessed as increase in cell viability preincubated with compound for 2 hrs followed by H2O2 addition and measured after 24 hrs by MTT assay. It counts as functional, cell-based.
The test system of test [4] is HBZY-1. In words: Antioxidant activity in rat HBZY-1 cells assessed as reduction in H2O2-induced intracellular ROS accumulation incubated with compound prior to H2O2 addition by DCFH-DA based flow cytometry. The format is functional, cell-based.
Test [5] has as its target T1, Nuclear factor erythroid 2-related factor 2 (Homo sapiens) (UniProt Q16236).
T1 sequence (whole entry): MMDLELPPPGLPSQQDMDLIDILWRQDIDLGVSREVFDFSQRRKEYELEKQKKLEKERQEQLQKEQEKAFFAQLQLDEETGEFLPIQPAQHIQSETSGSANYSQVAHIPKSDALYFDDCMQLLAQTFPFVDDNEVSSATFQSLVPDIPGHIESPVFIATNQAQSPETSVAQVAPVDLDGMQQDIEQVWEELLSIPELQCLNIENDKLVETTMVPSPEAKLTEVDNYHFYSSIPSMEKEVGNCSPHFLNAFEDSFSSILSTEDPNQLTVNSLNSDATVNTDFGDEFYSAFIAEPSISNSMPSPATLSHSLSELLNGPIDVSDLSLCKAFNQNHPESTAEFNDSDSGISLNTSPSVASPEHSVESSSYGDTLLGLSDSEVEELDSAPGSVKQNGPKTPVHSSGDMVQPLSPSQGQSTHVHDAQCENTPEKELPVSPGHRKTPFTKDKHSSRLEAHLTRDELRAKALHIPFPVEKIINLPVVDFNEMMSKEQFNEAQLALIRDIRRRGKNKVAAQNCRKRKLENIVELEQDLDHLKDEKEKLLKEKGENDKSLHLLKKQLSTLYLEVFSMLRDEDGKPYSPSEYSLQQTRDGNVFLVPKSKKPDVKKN
In words: Activation of Nrf2 (unknown origin) expressed in HEK293 cells co-transfected with ARE luciferase reporter plasmid after 16 hrs by dual luciferase reporter gene assay. It counts as cell-based. Background: In a reporter assay the amount or activity of a reporter protein is the signal.

In test [6] the target is Kelch-like ECH-associated protein 1 (Rattus norvegicus) (UniProt P57790). Put plainly: Binding affinity to Keap1 in rat HBZY-1 cells assessed as induction of Nrf2 nuclear translocation by measuring increase in ratio of nuclear to cytosolic Nrf2 level by Western blot analysis. It counts as cell-based. (In western blotting, separated proteins are transferred to a membrane and probed.)

Test [7] shares this target. In words: Binding affinity to Keap1 in rat HBZY-1 cells assessed as induction of Keap1/Nrf2 signaling by measuring increase in NQO-1 protein expression by Western blot analysis. The format is cell-based.
For test [8] the target is unchanged. Put plainly: Binding affinity to Keap1 in rat HBZY-1 cells assessed as induction of Keap1/Nrf2 signaling by measuring increase in HO-1 protein expression by Western blot analysis. The format is cell-based.
Test [9] shares this target. Put plainly: Binding affinity to Keap1 in rat HBZY-1 cells assessed as induction of Keap1/Nrf2 signaling by measuring increase in GCLM protein expression by Western blot analysis. It counts as cell-based.
Test [10] has the same target. In words: Binding affinity to Keap1 in rat HBZY-1 cells assessed as induction of Keap1/Nrf2 signaling by measuring increase in GCLC protein expression by Western blot analysis. The format is cell-based.
The subject of test [11] is HBZY-1. Put plainly: Cytoprotection against H2O2-induced cell death in rat HBZY-1 cells assessed as increase in cell viability at 6 uM preincubated for 2 hrs followed by H2O2 addition and measured after 24 hrs in presence of Nrf2 inhibitor TRG by MTT assay. The format is functional, cell-based.
Test [12] concerns HBZY-1. Put plainly: Cytoprotection against H2O2-induced cell death in rat HBZY-1 cells assessed as increase in cell viability at 6 uM preincubated for 2 hrs followed by H2O2 addition and measured after 24 hrs in presence of HO-1 inhibitor ZnPP by MTT assay. The format is functional, cell-based.
Test [13] deals with HBZY-1. In words: Cytoprotection against H2O2-induced cell death in rat HBZY-1 cells assessed as increase in cell viability at 6 uM preincubated for 2 hrs followed by H2O2 addition and measured after 24 hrs in presence of GCL inhibitor BSO by MTT assay. The format is functional, cell-based.
Test [14] concerns HBZY-1. Put plainly: Antiinflammatory activity in rat HBZY-1 cells assessed as reduction in LPS-induced NO production preincubated for 30 mins followed by LPS stimulation and measured after 24 hrs by Griess assay. It counts as functional, cell-based.
Test [15] concerns HBZY-1. Put plainly: Antiinflammatory activity in rat HBZY-1 cells assessed as reduction in nitric oxide production at 6 uM preincubated for 30 mins followed by LPS stimulation and measured after 24 hrs in presence of Nrf2 inhibitor TRG by Griess assay. The format is functional, cell-based.
For test [16], the system named is HBZY-1. In words: Antiinflammatory activity in rat HBZY-1 cells assessed as reduction in NO production at 6 uM preincubated for 30 mins followed by LPS stimulation and measured after 24 hrs in presence of HO-1 inhibitor ZnPP by Griess assay. The format is functional, cell-based.
Test [17] concerns the target Kelch-like ECH-associated protein 1 (Rattus norvegicus) (UniProt P57790). In words: Binding affinity to Keap1 in rat HBZY-1 cells transfected with pNF-kB-Luc/pRL-CMV assessed as induction of Keap1/Nrf2 signaling by measuring reduction in LPS-induced NFkappaB activation preincubated for 30 mins followed by LPS stimulation and measured after 12 hrs by luciferase reporter gene assay. It counts as cell-based.

For test [18] the target is unchanged. In words: Binding affinity to Keap1 in rat HBZY-1 cells transfected with pNF-kB-Luc/pRL-CMV assessed as induction of Keap1/Nrf2 signaling by measuring reduction in LPS-induced NFkappaB activation at 6 uM preincubated for 30 mins followed by LPS stimulation and measured after 12 hrs in presence of Nrf2 inhibitor TRG by luciferase reporter gene assay. The format is cell-based.

Test [19] shares this target. In words: Binding affinity to Keap1 in rat HBZY-1 cells transfected with pNF-kB-Luc/pRL-CMV assessed as induction of Keap1/Nrf2 signaling by measuring reduction in LPS-induced NFkappaB activation at 6 uM preincubated for 30 mins followed by LPS stimulation and measured after 12 hrs in presence of HO-1 inhibitor ZnPP by luciferase reporter gene assay. It counts as cell-based.

Test [20] has the same target. In words: Binding affinity to Keap1 in rat HBZY-1 cells assessed as disruption of Keap1/Nrf2 complex by measuring increase in Nrf2 expression by Western blot analysis. The format is cell-based.
The target is the same in test [21]. Put plainly: Binding affinity to Keap1 in rat HBZY-1 cells assessed as disruption of Keap1/Nrf2 complex by measuring Nrf2 expression in presence of DTT by Western blot analysis. The format is cell-based.
Test [22] has the same target. In words: Binding affinity to Keap1 in rat HBZY-1 cells assessed as disruption of Keap1/Nrf2 complex by measuring reduction in Keap1 protein expression by Western blot analysis. It counts as cell-based.
Test [23] shares this target. Put plainly: Binding affinity to Keap1 in rat HBZY-1 cells assessed as disruption of Keap1/Nrf2 complex by measuring Keap1 expression in presence of DTT by Western blot analysis. It counts as cell-based.
Test [24] shares this target. In words: Binding affinity to Keap1 in rat HBZY-1 cells assessed as induction of Keap1/Nrf2 signaling by measuring induction of Nrf2 nuclear translocation by measuring increase in ratio of nuclear to cytosolic Nrf2 level at 6 uM by Western blot analysis. The format is cell-based. The conditions noted are these: TDE = time-dependent effect.
Test [25] has the same target. In words: Binding affinity to Keap1 in rat HBZY-1 cells assessed as induction of Keap1/Nrf2 signaling by measuring increase in NQO-1 protein expression at 6 uM by Western blot analysis. The format is cell-based. The following applies: TDE = time-dependent effect.
Test [26] shares this target. In words: Binding affinity to Keap1 in rat HBZY-1 cells assessed as induction of Keap1/Nrf2 signaling by measuring increase in HO-1 protein expression at 6 uM by Western blot analysis. It counts as cell-based. The conditions noted are these: TDE = time-dependent effect.
Test [27] shares this target. Put plainly: Binding affinity to Keap1 in rat HBZY-1 cells assessed as induction of Keap1/Nrf2 signaling by measuring increase in GCLM protein expression at 6 uM by Western blot analysis. The format is cell-based. The following applies: TDE = time-dependent effect.
Test [28] shares this target. In words: Binding affinity to Keap1 in rat HBZY-1 cells assessed as induction of Keap1/Nrf2 signaling by measuring increase in GCLC protein expression at 6 uM by Western blot analysis. It counts as cell-based. The following applies: TDE = time-dependent effect.

The structures appear in SMILES notation. The source made the active and inactive calls. The rule behind the calls is not given here.

Kelch-like ECH-associated protein 1 (Rattus norvegicus), sequence (P57790 whole entry): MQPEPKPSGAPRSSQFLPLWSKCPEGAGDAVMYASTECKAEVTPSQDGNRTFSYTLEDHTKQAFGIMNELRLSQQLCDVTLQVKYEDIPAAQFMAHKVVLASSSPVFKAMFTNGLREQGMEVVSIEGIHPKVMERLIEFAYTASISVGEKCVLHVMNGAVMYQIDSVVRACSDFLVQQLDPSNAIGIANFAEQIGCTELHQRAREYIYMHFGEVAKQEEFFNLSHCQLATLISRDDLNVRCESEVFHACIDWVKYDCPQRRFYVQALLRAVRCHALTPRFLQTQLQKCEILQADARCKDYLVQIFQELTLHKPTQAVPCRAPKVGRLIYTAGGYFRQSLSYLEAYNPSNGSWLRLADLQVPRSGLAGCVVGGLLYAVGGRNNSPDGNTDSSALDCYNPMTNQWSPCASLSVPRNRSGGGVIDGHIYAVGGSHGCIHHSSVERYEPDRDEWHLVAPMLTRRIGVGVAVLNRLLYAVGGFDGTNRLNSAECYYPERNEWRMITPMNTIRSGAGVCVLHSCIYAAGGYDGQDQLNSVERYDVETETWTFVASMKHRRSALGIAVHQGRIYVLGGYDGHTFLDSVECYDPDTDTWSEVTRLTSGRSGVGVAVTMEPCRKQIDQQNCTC

What is called IC50 is the concentration at which inhibition is half-maximal. In the case of `COc1ccccc1NC(=O)/C(C#N)=C/c1ccccc1C`, in the test on HBZY-1 [1], the viability at 6 µM fell in the range of 65.6 to 96.4%. Also, the IC50 in the test with HBZY-1 [2] was above 200 µM.
For the compound `COc1ccccc1NC(=O)/C(C#N)=C/c1ccccc1C(F)(F)F`, the viability at 6 µM in the test with HBZY-1 [1] was 65.6 to 96.4%. In addition, the Activity result (in the test with HBZY-1 [3]; with HBZY-1 [4]; in [5]; in test [6]; in test [7]; in test [8]) was “Dose-dependent effect” throughout. The Activity entry in test [9] is “Dose-dependent effect”; in test [10] it was “Dose-dependent effect”; in the test on HBZY-1 [14] it was “Dose-dependent effect”; in test [17], “Dose-dependent effect”; in [24], “Tde”; in test [25], “Tde”. Also, the Activity result in test [26], in test [27] and in test [28] was “Tde” in each case. Also, the outcome (in the test with HBZY-1 [11]; in the test with HBZY-1 [12]; in the test with HBZY-1 [13]; with HBZY-1 [15]; in the test with HBZY-1 [16]; in [18]) was inactive. The outcome in test [19], in test [21] and in test [23] was inactive. In addition, the result in [20] and in [22] was Active. Moreover, in the test on HBZY-1 [2], the IC50 is above 200 µM.
In the case of `COc1ccc(/C=C(\C#N)C(=O)Nc2ccccc2OC)cc1`, the viability at 6 µM in the test on HBZY-1 [1] is 65.6 to 96.4%. The half-inhibitory concentration (IC50) in the test on HBZY-1 [2] was above 200 µM.
Turning to `CCCCNC(=O)/C(C#N)=C/c1ccccc1C(F)(F)F`, the viability at 6 µM in the test on HBZY-1 [1] lay within 65.6 to 96.4%. In the test with HBZY-1 [2], the 50% inhibitory concentration (IC50) was above 200 µM.
In the same order, the values of `COc1ccc(NC(=O)/C=C/c2ccccc2C(F)(F)F)cc1OC` are 65.6 to 96.4% and above 200 µM.
Consider `COc1ccccc1C(=O)/C=C/c1ccccc1C(F)(F)F`, for which the viability at 6 µM with HBZY-1 [1] came out at 80.3%.
On to `COc1ccc(CCNC(=O)/C=C/c2ccccc2C(F)(F)F)cc1OC`, for which the viability at 6 µM in the test on HBZY-1 [1] lay in the range of 65.6 to 96.4%. Also, the IC50 in the test with HBZY-1 [2] was above 200 µM.
For the compound `COc1ccccc1NC(=O)/C(C#N)=C/c1cc(OC)c(OC)c(OC)c1`, the viability at 6 µM in the test with HBZY-1 [1] was 78.1%. Besides, the IC50 in the test with HBZY-1 [2] is above 200 µM.
Regarding `COc1ccc(NC(=O)/C=C/c2ccccc2C(F)(F)F)cc1`, the viability at 6 µM with HBZY-1 [1] was 65.6 to 96.4%. For the same compound, the half-maximal inhibitory concentration (IC50) in the test with HBZY-1 [2] was above 200 µM.
In the case of `COc1ccc(NC(=O)/C(C#N)=C/c2ccccc2C(F)(F)F)cc1OC`, the viability at 6 µM in the test on HBZY-1 [1] was found to be 78.2%. In addition, the IC50 with HBZY-1 [2] is above 200 µM.
In the case of `COc1ccccc1NC(=O)/C(C#N)=C/c1ccc(OC)c(OC)c1`, the viability at 6 µM in the test with HBZY-1 [1] stood at 78.4%. In the test with HBZY-1 [2], the 50% inhibitory concentration (IC50) was above 200 µM.
On to `N#C/C(=C\c1ccccc1C(F)(F)F)C(=O)Nc1ccc(F)c(Cl)c1`, for which, in the test with HBZY-1 [1], the viability at 6 µM stood at 80.4%. In the test on HBZY-1 [2], the IC50 was above 200 µM.
The like results for `COc1cc(NC(=O)/C(C#N)=C/c2ccccc2C(F)(F)F)cc(OC)c1OC` were, in that order, 65.6 to 96.4% and above 200 µM.
